Results reported in article PMC8710804, “Stapled Anoplin as an Antibacterial Agent” (Frontiers in Microbiology, 2021).
Several values for one entry are separate records, joined by “and”; a condition that tells them apart may be missing. Identical values can stand only once. Where a SMILES comes first, the peptide text is derived from it. Bridges are numbered along the chain shown (N, C = ends). Where no end group is shown, it is not given here. [ ]: non-standard residue; d: D form. S5 = C=CCCC[C@](C)(N)C(=O)O

Key:
sheep red blood cells = assay: Hemolysis assay; assay type: cell-based; conditions: sheep RBC in PBS pH 7.4, 37°C, 30 min, absorbance 405 nm, relative to 1% Triton-X-100, average of three independent measurements
Description: Sheep RBC (200 μl) were pelleted (3,500 rpm for 5 min), washed three times with PBS buffer (PBS 10 mM and 150 mM NaCl, pH 7.4). The cells were then diluted in PBS buffer (10 ml), divided into 50 parts into 1.5 ml tubes, and pelleted by centrifugation. Various concentrations of peptide solutions (200 μl) were added to the cells and incubated with shaking (165 rpm, 37°C) for 30 min. The cells were pelleted by centrifugation (3,500 rpm for 5 min). Then, 100 μl of supernatant from each tube was collected into a clear 96-well plate, and the absorbance of the released hemoglobin was measured with a plate reader spectrophotometer (Microplate Reader Biotek, Winooski, VT, United States) at 405 nm. Hemolysis was determined relative to the negative control (PBS) and the positive control (1% v/v Triton-X-100 that lyses 100% of RBC). The percentage of hemolysis was determined using the following equation:
where A0 is the absorbance intensity of the RBC in buffer (background), and A and A100 are the absorbance intensities of the RBS in the presence of peptides and Triton X-100, respectively.The tests were performed with duplicate samples, and the average values of three independent measurements were recorded.

HEK 293 cells [1] = assay: DAPI staining, confocal microscopy of cell morphology; assay type: cell-based, human; conditions: HEK 293, 24 h, 64 μM of anoplin, 8–32 μM of derivatives (32 μM of anoplin[2-6]), confocal microscope
Description: 1 × 10^5 cells were seeded into coverslips and incubated for 24 h. The cells were then treated with anoplin (64 μM) or its derivatives (8–32 μM) for 24 h. Next, cells were washed with PBS and fixed in 4% PFA for 15 min at room temperature. After three washes with PBS, cells were stained with DAPI (4′,6-diamidino-2-phenylindole, dihydrochloride; Boster) for 5 min (as indicated in the instruction). Coverslips with cells were washed three times and mounted on a glass microscope slide using a Dako Fluorescence Mounting Medium. Images were acquired with Axio Imager Z2 LSM 700 Zeiss confocal microscope.

trypsin = assay: Trypsin digestion assay; assay type: in vitro ADME; conditions: trypsin:peptide 1:1333, 0.1 M NH4HCO3 pH 8.0, 37°C, RP-HPLC peak area, performed thrice; for stability against trypsin (comparison in words): up to 8 min
Description: 250 μl of peptide solution in ammonium bicarbonate buffer (0.1 M NH4HCO3, pH 8.0) and an appropriate amount of trypsin (Sigma-Aldrich) solution in water were incubated at 37°C with rapid shaking (600 rpm). Trypsin and peptides were mixed in the ratio (1:1333; [Luong et al., 2017b]). After 2, 4, 6, and 8 min of incubation, 60 μl of digestion mixture was taken and treated with 60 μl of a solution of 50% acetonitrile containing 1% TFA to stop the digestion. Peptide degradation was analyzed with RP-HPLC using analytical methods to assess peptide purity (see subsection Synthesis of stapled anoplins). The results were calculated as the percentage of peptide peak of area degradation. The total area of every peak was designated for experiments without trypsin. Each of the experiments was performed thrice.

E. coli K12 MG1655 = conditions: cation-adjusted MHB, ~5 × 10^5 CFU/ml, 37°C, 19 h + 1 h resazurin, OD600, at least three replicates for peptides, one for antibiotics
E. coli O157:H7 = conditions: cation-adjusted MHB, ~5 × 10^5 CFU/ml, 37°C, 19 h + 1 h resazurin, OD600, at least three replicates for peptides, one for antibiotics
E. coli 1841/06 ESBL+ = conditions: cation-adjusted MHB, ~5 × 10^5 CFU/ml, 37°C, 19 h + 1 h resazurin, OD600, at least three replicates for peptides, one for antibiotics
E. coli WR 3551/98 ESBL+ = conditions: cation-adjusted MHB, ~5 × 10^5 CFU/ml, 37°C, 19 h + 1 h resazurin, OD600, at least three replicates for peptides, one for antibiotics
P. aeruginosa PAO1 = conditions: cation-adjusted MHB, ~5 × 10^5 CFU/ml, 37°C, 19 h + 1 h resazurin, OD600, at least three replicates for peptides, one for antibiotics
P. aeruginosa ATCC 27853 = conditions: cation-adjusted MHB, ~5 × 10^5 CFU/ml, 37°C, 19 h + 1 h resazurin, OD600, at least three replicates for peptides, one for antibiotics
S. typhimurium LT2 = conditions: cation-adjusted MHB, ~5 × 10^5 CFU/ml, 37°C, 19 h + 1 h resazurin, OD600, at least three replicates for peptides, one for antibiotics
S. aureus ATCC 29213 = conditions: cation-adjusted MHB, ~5 × 10^5 CFU/ml, 37°C, 19 h + 1 h resazurin, OD600, at least three replicates for peptides, one for antibiotics
[2] = tested on: S. aureus ATCC BAA1720 MRSA; conditions: cation-adjusted MHB, ~5 × 10^5 CFU/ml, 37°C, 19 h + 1 h resazurin, OD600, at least three replicates for peptides, one for antibiotics
B. subtilis 168 = conditions: cation-adjusted MHB, ~5 × 10^5 CFU/ml, 37°C, 19 h + 1 h resazurin, OD600, at least three replicates for peptides, one for antibiotics
HEK 293 cells [3] = assay: Cytotoxicity assay (MTT); assay type: cell-based, human; conditions: n = 3
Description: The HEK 293 cells were seeded at a density 2 × 10^4 per well on a 96-well plate and incubated in high glucose DMEM medium (Lonza) supplemented with 10% FBS and 50 U/ml of penicillin–streptomycin at 37°C in 5% CO2. After 24 h, cells were covered with a fresh medium containing tested peptides at different concentrations (4, 8, 16, and 32 μM). After 24 or 48 h of incubation, cells viability was tested using MTT [3-(4,5-dimethylthiazol-2-yl)-2,5-diphenyltetrazolium bromide] (Merck). Briefly, 10 μl of 5 mg/ml MTT was added to each well and incubated for 4 h. Formazan produced from MTT was solubilized during overnight incubation in 100 μl of 10% SDS in 0.01 M HCl. Absorbance at 590 nm was measured using Microplate Reader Biotek (Winooski, VT, United States). The experiment was performed in triplicates.

Compound	Hemolytic activity (sheep red blood cells; 4 μM peptide)	Hemolytic activity (sheep red blood cells; 8 μM peptide)	Hemolytic activity (sheep red blood cells; 16 μM peptide)	Hemolytic activity (sheep red blood cells; 32 μM peptide)	Hemolytic activity (sheep red blood cells; 64 μM peptide)	morphology of cells (HEK 293 cells [1])	stability against trypsin (comparison in words) (trypsin)	MIC (E. coli K12 MG1655)	MIC (E. coli O157:H7)	MIC (E. coli 1841/06 ESBL+)	MIC (E. coli WR 3551/98 ESBL+)	MIC (P. aeruginosa PAO1)	MIC (P. aeruginosa ATCC 27853)	MIC (S. typhimurium LT2)	MIC (S. aureus ATCC 29213)	MIC [2]	MIC (B. subtilis 168)	other results
C=CCCC[C@](C)(NC(=O)[C@H](CCCCN)NC(=O)[C@H](CC(C)C)NC(=O)[C@H](CC(C)C)NC(=O)CN)C(=O)N[C@H](C(=O)N[C@@H](CCCCN)C(=O)N[C@H](C(=O)N[C@@](C)(CCCC=C)C(=O)N[C@@H](CC(C)C)C(N)=O)[C@@H](C)O)[C@@H](C)CC [anoplinS5(5,9)] (H-GLLK[S5]IKT[S5]L-NH2)	6.7%	7.2%	8.9%	11.9%	14.2%	altered cell appearance and the presence of cellular debris	significantly higher stability against trypsin	64 µM	32 µM	32 µM	64 µM	64 µM	≥64 µM	≥64 µM	8 µM	8 µM	8 µM	stability against trypsin (comparison in words) (trypsin; listed as S5(5-9) peptide): highest enzymatic resistance
CC[C@H](C)[C@@H]1NC(=O)[C@@](C)(NC(=O)[C@H](CCCCN)NC(=O)[C@H](CC(C)C)NC(=O)[C@H](CC(C)C)NC(=O)CN)CCCC=CCCC[C@@](C)(C(=O)N[C@@H](CC(C)C)C(N)=O)NC(=O)[C@H]([C@@H](C)O)NC(=O)[C@H](CCCCN)NC1=O [anoplin[5-9]] (H-GLLK[S5]IKT[S5]L-NH2; staple 5-9)	6.5%	16.6%	29.8%	–	62.7%	altered cell appearance and the presence of cellular debris	significantly higher stability against trypsin	16 µM	8 µM	8 µM	16 µM	16 µM	32 µM	32 µM	4 µM	4 µM	4 µM	Hemolytic activity (sheep red blood cells; 32 μM peptide, listed as Anoplin[5-9]): 43.2%; Hemolytic activity (sheep red blood cells; 32 μM peptide, listed as anoplin [5-9]): 43%; dead cells (HEK 293 cells [3]; HEK 293, 16 μM peptide): approximately 60%; effect on living cells (HEK 293 cells [3]; HEK 293, 32 μM peptide): nearly eliminated all living cells
NC[C@H]1O[C@H](O[C@H]2[C@H](O)[C@@H](O[C@H]3O[C@H](CO)[C@@H](O)[C@H](N)[C@H]3O)[C@H](N)C[C@@H]2N)[C@H](O)[C@@H](O)[C@@H]1O [kanamycin]	–	–	–	–	–	–	–	8 µM	2 µM	≥64 µM	≥64 µM	≥64 µM	≥64 µM	≥64 µM	4 µM	≥64 µM	0.25 µM	–
GLLKRIKTLL-NH2 [anoplin]	0.5%	1.3%	0.7%	4% and 0.6%	2.3%	not altered	–	32 µM	64 µM	64 µM	64 µM	16 µM	32 µM	64 µM	≥64 µM	≥64 µM	16 µM	effect on cell viability compared to untreated control cells (HEK 293 cells [3]; HEK 293, 4-32 μM peptide, 24 and 48 h of treatment): no significant effect on cell viability; time of incubation with trypsin to complete decay of the peptide peak (trypsin; 600 rpm, sampled at 2, 4, 6, 8 min): 4 to 6 min
polymyxin B	–	–	–	–	–	–	–	0.25 µM	0.5 µM	0.25 µM	0.5 µM	0.5 µM	0.25 µM	0.5 µM	≥64 µM	≥64 µM	2 µM	–
